In US7727736B2, “Soluble phospholipids for use in clotting factor assays” (The University of North Carolina at Chapel Hill, priority 2003, dated 2010):

Target: T1, factor Va (Bos taurus, UniProt Q28107)
T1 sequence (Q28107 29-741 limits assumed): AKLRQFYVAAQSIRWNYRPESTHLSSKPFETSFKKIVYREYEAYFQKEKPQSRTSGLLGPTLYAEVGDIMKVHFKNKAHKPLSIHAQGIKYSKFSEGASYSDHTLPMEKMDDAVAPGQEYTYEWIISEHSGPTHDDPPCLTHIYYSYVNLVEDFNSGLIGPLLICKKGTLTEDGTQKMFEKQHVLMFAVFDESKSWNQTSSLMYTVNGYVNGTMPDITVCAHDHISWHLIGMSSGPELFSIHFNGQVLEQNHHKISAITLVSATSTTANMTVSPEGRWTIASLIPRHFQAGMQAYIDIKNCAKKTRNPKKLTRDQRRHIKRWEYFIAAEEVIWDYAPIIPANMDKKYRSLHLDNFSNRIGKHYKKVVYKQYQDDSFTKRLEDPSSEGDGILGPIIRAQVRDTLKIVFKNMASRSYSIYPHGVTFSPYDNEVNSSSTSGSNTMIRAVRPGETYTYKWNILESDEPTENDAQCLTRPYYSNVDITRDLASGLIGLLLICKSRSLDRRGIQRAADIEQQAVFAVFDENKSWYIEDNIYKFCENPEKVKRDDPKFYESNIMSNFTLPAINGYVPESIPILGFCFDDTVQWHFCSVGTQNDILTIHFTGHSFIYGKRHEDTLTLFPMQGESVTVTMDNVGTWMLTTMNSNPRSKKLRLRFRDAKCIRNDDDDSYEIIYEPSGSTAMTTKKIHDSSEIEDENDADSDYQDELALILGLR
T1 sequence (Q28107 1565-2211 limits assumed): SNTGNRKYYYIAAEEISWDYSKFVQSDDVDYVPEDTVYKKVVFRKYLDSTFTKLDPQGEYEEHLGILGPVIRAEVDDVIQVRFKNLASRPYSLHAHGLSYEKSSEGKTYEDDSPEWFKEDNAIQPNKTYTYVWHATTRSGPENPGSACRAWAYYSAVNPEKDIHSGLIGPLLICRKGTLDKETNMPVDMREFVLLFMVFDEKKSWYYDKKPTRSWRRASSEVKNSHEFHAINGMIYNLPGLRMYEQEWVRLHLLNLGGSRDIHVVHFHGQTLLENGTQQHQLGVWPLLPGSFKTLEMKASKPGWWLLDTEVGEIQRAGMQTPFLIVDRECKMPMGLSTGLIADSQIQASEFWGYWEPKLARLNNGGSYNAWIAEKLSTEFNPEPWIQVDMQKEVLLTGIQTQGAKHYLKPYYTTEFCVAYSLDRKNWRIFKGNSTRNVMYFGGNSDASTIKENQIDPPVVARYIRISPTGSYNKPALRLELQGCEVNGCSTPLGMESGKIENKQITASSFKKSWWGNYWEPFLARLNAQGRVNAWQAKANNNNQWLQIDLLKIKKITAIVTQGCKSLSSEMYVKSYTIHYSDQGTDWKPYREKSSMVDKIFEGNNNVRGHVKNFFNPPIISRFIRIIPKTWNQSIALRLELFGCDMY
Experiment: Factor Va inactivation by APC
Format: biochemical, bovine
Set-up: APC cuts three bonds in the heavy chain of factor Va; bovine factor Va (100 nM)
Method: Aliquots of this mixture (10 μL) were added at selected time intervals to a cuvette containing prothrombin (1.4 μM), DAPA (5 μM), PCPS vesicle (50 μM), and factor Xa (10 nM) in a total assay volume of 1 mL. The fluorescence intensity of the thrombin-DAPA was monitored with time. Under these conditions, the rate of thrombin formation is proportional to the rate of DAPA fluorescence increase and is linearly related to the amount of active factor Va. The two isoforms of factor Va, Va1 (Frame A) and Va2 (Frame B) were inactivated at different rates and to different extents by APC depending on the availability of C6PS.
Proteolysis at Arg^506 leads to partial inactivation, but proteolysis at Arg^306 is necessary for full inactivation (Kalafatis & Mann (1993) J. Biol. Chemistry 268 27246; Nicolaes et al., (1995) J. Biol. Chemistry (1995) 270 21158). […] The rate of proteolysis of the bond at Arg^306 increased from undetectable to a value of kcat/KM=3-3.5×10^6 M^−1sec^−1, identical to the rate reported with PS-containing membranes.

With CCCCCC(=O)OC[C@H](COP(=O)(O)OC[C@H](N)C(=O)O)OC(=O)CCCCC [C6PS, 1,2-dicaproyl-sn-glycero-3-phospho-L-serine] the “effect on extent of factor Va inactivation by APC” value (4 μM C6PS) was “only a small effect”, the “effect on rate of factor Va inactivation by APC” value (4 μM C6PS) was “no effect” and the “factor Va inactivation by APC” value (200 μM C6PS) was “complete inactivation”.
